According to BindingDB's records for doi:10.1016/j.bmc.2019.01.024 (2019):

Tests used:
[1] = Inhibition of mouse GAT2 expressed in HEK293 cells assessed as reduction in [3H]GABA uptake preincubated for 25 mins followed by [3H]GABA addition and measured after 10 mins by microbeta liquid scintillation counting method
[2] = Inhibition of mouse GAT3 expressed in HEK293 cells assessed as reduction in [3H]GABA uptake preincubated for 25 mins followed by [3H]GABA addition and measured after 4 mins by microbeta liquid scintillation counting method
[3] = target: T1, Sodium- and chloride-dependent GABA transporter 2 (Mus musculus, UniProt P31649); experiment: Inhibition of mouse GAT2 expressed in HEK293 cells assessed as reduction in [3H]GABA uptake preincubated for 25 mins followed by [3H]GABA addition and measured after 10 mins by microbeta liquid scintillation counting method
T1 sequence (P31649 whole entry): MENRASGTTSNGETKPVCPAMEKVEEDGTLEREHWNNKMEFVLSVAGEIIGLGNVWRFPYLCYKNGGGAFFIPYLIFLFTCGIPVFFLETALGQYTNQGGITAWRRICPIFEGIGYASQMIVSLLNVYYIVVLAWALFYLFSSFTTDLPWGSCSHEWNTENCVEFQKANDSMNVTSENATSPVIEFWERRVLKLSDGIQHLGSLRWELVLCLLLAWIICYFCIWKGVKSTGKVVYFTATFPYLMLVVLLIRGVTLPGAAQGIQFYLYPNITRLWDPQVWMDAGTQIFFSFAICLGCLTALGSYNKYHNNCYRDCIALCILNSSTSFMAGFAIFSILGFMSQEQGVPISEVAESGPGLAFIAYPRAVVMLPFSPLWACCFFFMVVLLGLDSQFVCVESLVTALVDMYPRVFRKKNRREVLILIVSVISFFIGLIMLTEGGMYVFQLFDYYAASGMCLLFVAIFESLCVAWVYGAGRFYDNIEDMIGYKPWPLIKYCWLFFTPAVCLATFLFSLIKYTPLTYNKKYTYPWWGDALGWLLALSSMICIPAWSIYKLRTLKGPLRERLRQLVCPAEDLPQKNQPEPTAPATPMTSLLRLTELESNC

Compound | IC50 [1] [µM] | IC50 [2] [µM] | IC50 [3] [µM]
COc1ccc(C(/C=C\CN2CCCC(C(=O)O)C2)(Cc2ccccc2)c2ccc(OC)cc2)cc1 (stereo unspecified) | – | – | 30.2
COc1ccc(C(C/C=C\CN2CCCC(C(=O)O)C2)(c2ccc(OC)cc2)c2ccc(OC)cc2)cc1 (stereo unspecified) | – | 85.1 | –
O=C(O)C1CCCN(CC/C=C\C(c2ccccc2)(c2ccccc2)c2ccccc2)C1 (stereo unspecified) | 55 | – | –

Next, values leading:

IC50 [1] [µM] | IC50 [2] [µM] | IC50 [3] [µM] | Compound
61.7 | 45.7 | – | COc1ccc(C(/C=C\CN2CCCC(C(=O)O)C2)(c2ccc(OC)cc2)c2ccc3c(c2)OCO3)cc1 (stereo unspecified)
89.1 | – | – | COc1ccc(C(/C=C\CN2CCCC(C(=O)O)C2)(c2ccc(OC)cc2)c2ccsc2)cc1 (stereo unspecified)
